Ends that are not written are not given here.
Columns and labels:
human cells = conditions: in vitro, HLA-A*2402, Non-patent Document 12; cited from earlier work
[1] = test system: B-LCL cells pulsed with the same WT1 peptide (BLCL-Ps)
Description: Peripheral blood mononuclear cells (PBMCs) were separated by Ficoll-Hypaque gradient density centrifugation method from peripheral blood that had been collected from an HLA-A*3303-positive healthy donor (HLA-A*3303/0207). The PBMCs were then seeded to a 24-well cell culture plate at the density of about 1×10^7 in RPMI 1640 medium containing 10% FCS, and a culture supernatant of B95-8 cells (cells producing EB virus) were added. They were cultured at 37° C. with 5% CO2 for about 1 month. B-LCL cells transformed with EB virus, which are B-cell tumor cells, were obtained. […] B-LCL cells were pulsed by incubating them with 20 μg/ml of WT1337, WT1364, WT1367 or WT1409 for 2 hours, and irradiated with 80 Gy of radiation. The resulting B-LCL cells (hereinafter referred to as B-LCL cells pulsed with a WT1 peptide) were used as antigen-presenting cells for the following experiments.
(§1) 3×10^6 of PBMCs (HLA-A*3303/1101) were cultured in a 24-well cell culture plate in complete medium (450 RPMI, 45% AMI-V medium and 10% human AB serum) containing 20 μg/ml of WT1337, WT1364, WT1367 or WT1409 at 37° C. with 5% CO2 for 1 week to obtain responding cells. 2×10^6 of the resulting responding cells were cocultured with 1×10^6 of the B-LCL cells pulsed with the same WT1 peptide in complete medium for 1 week (first stimulation). The PBMCs were cocultured with the B-LCL cells pulsed with the WT1 peptide three more times (second to fourth stimulations) under the conditions under which 20 IU/ml (final concentration) of IL-2 was added as follows: second stimulation: two times every other day from 3 days after the initiation of stimulation; third and fourth stimulations: three times at intervals of one day from the day after the initiation of stimulation. The resulting cells were concentrated using Negative Selection Columns Gravity Feed Kit (StemSp) so that the ratio of CD8-positive T cells became about 800, and cocultured with the B-LCL cells pulsed with the WT1 peptide (fifth stimulation). […]
(§2) The cytotoxic activity of CTLs was measured using ^51Cr release assay. […] The amounts of ^51Cr released into the supernatants were measured using a liquid scintillation counter. The cytotoxic activity (%) was determined using the following formula: (^51Cr release in supernatant of sample−Spontaneous ^51Cr release)/(Maximum ^51Cr release−Spontaneous ^51Cr release)×100 wherein Spontaneous ^51Cr release is ^51Cr release observed when the target cells into which ^51Cr had been incorporated were cultured alone under the same condition, and Maximum ^51Cr release is ^51Cr release observed when the target cells into which ^51Cr had been incorporated were completely lysed using 1% Triton X-100.

[2] = test system: B-LCL expressing WT1 (B-LCL-WT1)
Description: 3×10^6 of PBMCs (HLA-A*3303/1101) were cultured in a 24-well cell culture plate in complete medium (450 RPMI, 45% AMI-V medium and 10% human AB serum) containing 20 μg/ml of WT1337, WT1364, WT1367 or WT1409 at 37° C. with 5% CO2 for 1 week to obtain responding cells. 2×10^6 of the resulting responding cells were cocultured with 1×10^6 of the B-LCL cells pulsed with the same WT1 peptide in complete medium for 1 week (first stimulation). […]
as §2
The cytotoxic activity of CTLs induced with WT1367 against B-LCL cell expressing WT1 was determined using the method as described above. […]

[3] = test system: human peripheral blood mononuclear cells having HLA-A*0201; conditions: human PBMCs having HLA-A*0201 stimulated with peptide; Non-patent Document 11; cited from earlier work

Description for TF-1 cells: as §1, §2
The cytotoxic activity of CTLs induced with WT1364, WT1367 or WT1409 against TF-1 cells that are tumor cells expressing a WT1 gene (HLA-A*3303-positive) was determined using the method as described above. […]

Sequence	cytotoxic activity (specific lysis) of CTLs induced with the peptide (TF-1 cells)	cytotoxic activity (specific lysis) of CTLs induced with the peptide [1]	further results
CMTWNQMNL (listed as Homo sapiens) [WT1235]			induction of WT1-specific CTLs (human cells): WT1-specific CTLs (TAK-1) are induced
FSRSDQLKR [WT1364]	have a cytotoxic activity against the cell expressing a WT1 gene exogenously	damage specifically BLCL-Ps	
LSHLQMHSR [WT1337]		damage specifically BLCL-Ps	
SDQLKRHQR [WT1367]	have a cytotoxic activity against the cell expressing a WT1 gene exogenously	damage specifically BLCL-Ps	cytotoxic activity (specific lysis) of CTLs induced with the peptide [2]: damage only the cell which is HLA-A*3303-positive and expresses WT1
SLGEQQYSV (listed as Homo sapiens) [WH187 peptide]			induction of WT1-specific CTLs [3]: WT1-specific CTLs are induced
TSEKPFSCR [WT1409]	have a cytotoxic activity against the cell expressing a WT1 gene exogenously	damage specifically BLCL-Ps	

Reference: US8933038B2, “Method of treating cancer with an HLA-A*3303-restricted WT1 peptide and pharmaceutical composition comprising the same” (International Institute of Cancer Immunology, Inc., priority 2006, dated 2015)
